Measurements: US7989464B2, “mGluR1 antagonists as therapeutic agents” (Schering Corporation, priority 2004, dated 2011)
Like-named read-outs stand apart in the source and are kept apart here.

Target: T1, hmGluR1 receptor (Homo sapiens, UniProt Q13255)
T1 construct: expressed in transfected cells
Experiment: IC50 determination: intracellular calcium mobilization (FLIPR) upon Quisqualate stimulation in CHO cells stably expressing hmGluR1
Type: cell-based
Conditions: against Quisqualate 1 μM (EC80)
Method in brief: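 CHO cells stably expressing hmGluR1 were kept overnight in DMEM high glucose with GPT and 1 mM pyruvate, then loaded 2 h with Calcium 3 dye.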

[1] = FLIPR calcium mobilization, read-out: IC50 Class
[2] = class symbols, read-out: mGIuR 1 IC50
[3] = FLIPR calcium mobilization, read-out: mGluR1 IC50

T1 sequence (Q13255 19-1194): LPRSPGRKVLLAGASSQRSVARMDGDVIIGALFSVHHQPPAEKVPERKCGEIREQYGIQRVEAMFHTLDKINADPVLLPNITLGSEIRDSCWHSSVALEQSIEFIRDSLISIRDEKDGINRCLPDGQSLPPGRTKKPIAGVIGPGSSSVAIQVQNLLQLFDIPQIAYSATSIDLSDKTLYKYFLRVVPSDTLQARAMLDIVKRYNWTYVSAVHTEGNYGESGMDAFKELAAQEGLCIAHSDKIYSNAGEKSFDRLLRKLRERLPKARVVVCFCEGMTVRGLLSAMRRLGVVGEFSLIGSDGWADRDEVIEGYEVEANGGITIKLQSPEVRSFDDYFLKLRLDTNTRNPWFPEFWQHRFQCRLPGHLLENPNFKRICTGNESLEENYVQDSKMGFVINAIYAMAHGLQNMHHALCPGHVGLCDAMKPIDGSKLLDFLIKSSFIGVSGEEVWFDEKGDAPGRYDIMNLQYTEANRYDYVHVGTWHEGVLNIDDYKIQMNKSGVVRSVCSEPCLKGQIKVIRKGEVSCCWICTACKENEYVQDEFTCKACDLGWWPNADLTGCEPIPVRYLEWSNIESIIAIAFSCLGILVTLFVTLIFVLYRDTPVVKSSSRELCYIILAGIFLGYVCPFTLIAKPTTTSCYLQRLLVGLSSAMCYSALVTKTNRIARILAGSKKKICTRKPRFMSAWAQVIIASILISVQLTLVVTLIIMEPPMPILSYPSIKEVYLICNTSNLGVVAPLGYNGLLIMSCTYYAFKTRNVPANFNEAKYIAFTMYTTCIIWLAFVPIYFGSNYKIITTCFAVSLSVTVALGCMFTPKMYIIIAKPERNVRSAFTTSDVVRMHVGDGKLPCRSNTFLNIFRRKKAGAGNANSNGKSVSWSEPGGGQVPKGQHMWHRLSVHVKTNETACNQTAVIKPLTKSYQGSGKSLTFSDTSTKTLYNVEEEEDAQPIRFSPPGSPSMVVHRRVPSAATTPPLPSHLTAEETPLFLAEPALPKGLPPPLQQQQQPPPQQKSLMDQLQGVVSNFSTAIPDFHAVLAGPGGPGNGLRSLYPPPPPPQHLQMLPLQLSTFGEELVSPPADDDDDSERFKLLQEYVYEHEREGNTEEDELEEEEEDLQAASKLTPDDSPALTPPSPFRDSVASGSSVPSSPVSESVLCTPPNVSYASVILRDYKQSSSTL

| SMILES | IC50 [1] | IC50 [2] | IC50 [3] |
| --- | --- | --- | --- |
| COc1ccc(-n2cnc3c(sc4nccc(NC5CC5)c43)c2=O)c(C)c1 [131I] | 50 to 150 nM | – | – |
| C#CCNc1ccnc2sc3c(=O)n(C4CCCCC4)cnc3c12 [72G] | – | < 50 nM | – |
| O=c1c2sc3nccc(NC4CC4)c3c2ncn1-c1ccc(Br)cc1 [28GY] | < 50 nM | – | – |
| O=c1c2sc3nccc(NCC4CC4)c3c2ncn1-c1ccc2occc2c1 [28BX] | 150 to 1000 nM | – | – |
| CN(C)c1c(C#N)cnc2sc3c(=O)n(C4CCCCC4)cnc3c12 [compound 46] | – | < 50 nM | – |
| CNc1c(Br)cnc2sc3c(=O)n(C4CCCCC4)cnc3c12 [compound 44] | – | < 50 nM | – |
| O=c1c2sc3nccc(NC4CC4)c3c2ncn1-c1ccc2scnc2c1 [131J] | < 50 nM | – | – |
| COc1ccc(Nc2ncnc3sc4c(=O)n(-c5ccccc5)cnc4c23)cc1 [95GI] | 150 to 1000 nM | – | – |
| Cc1ccc(-n2cnc3c(sc4nccc(NC5CCCCC5)c43)c2=O)cc1 [28DF] | > 1000 nM | – | – |
| CCNc1ncnc2sc3c(=O)n(-c4ccc(OC)c(F)c4)cnc3c12 [95BL] | < 50 nM | – | – |
| COc1ccc(-n2cnc3c(sc4nccc(NCCCO)c43)c2=O)cc1 [28HK] | < 50 nM | – | – |
| O=c1c2sc3nccc(N4CC[C@H](O)C4)c3c2ncn1C1CCCCC1 [28N] | – | > 1000 nM | – |
| O=c1c2sc3nccc(CC4CC4)c3c2ncn1-c1ccc(Cl)cc1 [compound 179] | 150 to 1000 nM | – | – |
| O=c1c2sc3ncnc(Nc4ccccc4)c3c2ncn1-c1ccc(Br)cc1 [95GF] | > 1000 nM | – | – |
| O=c1c2sc3nccc(NC4CCC4)c3c2ncn1C1CCCCC1 [28W] | – | 150 to 1000 nM | – |
| COc1ccc(-c2c(C(C)=O)c(C)nc3sc4c(=O)n(-c5ccc(Cl)cc5)cnc4c23)cc1 [P-11] | – | 150 to 1000 nM | – |

Further lines, results first:

| IC50 [1] | IC50 [2] | IC50 [3] | SMILES |
| --- | --- | --- | --- |
| 150 to 1000 nM | – | – | COc1ncnc2sc3c(=O)n(-c4ccc(C)cc4)cnc3c12 [95FN] |
| > 1000 nM | – | – | CN(C)c1cccc2sc3c(=O)n(-c4cccc(Cl)c4)cnc3c12 [103H] |
| – | < 50 nM | 1.73 nM | Cc1cc(-n2cnc3c(sc4nccc(N(C)C)c43)c2=O)ccc1Br [7DR] |
| < 50 nM | – | 1.95 nM | C=CCNc1ccnc2sc3c(=O)n(-c4ccc(OC)cc4)cnc3c12 [28DS] |
| – | > 1000 nM | – | CC#CCOc1ccnc2sc3c(=O)n(-c4ccc(C)cc4)cnc3c12 [66B] |
| – | < 50 nM | – | C#CCN(C)c1ccnc2sc3c(=O)n(-c4ccc(C)cc4)cnc3c12 [28AB] |
| – | < 50 nM | – | CN(C)c1ccnc2sc3c(=O)n(N4CCCCCC4)cnc3c12 [60D] |
| – | < 50 nM | – | Cc1ccc(-n2cnc3c(sc4nccc(N(C)C)c43)c2=O)cc1Br [7DQ] |
| – | < 50 nM | – | Cc1ccc(-n2cnc3c(sc4nccc(NC[C@H](C)O)c43)c2=O)cc1 [28BB] |
| – | > 1000 nM | – | CN(C)c1ccnc2sc3c(=O)n(-c4cc[nH]n4)cnc3c12 [15W] |
| 150 to 1000 nM | – | – | Cc1ccc(-n2cnc3c(sc4nccc(NC(C)(C)C)c43)c2=O)cc1 [28EO] |
| – | 50 to 150 nM | – | Cc1cc(-n2cnc3c(sc4nccc(N(C)C)c43)c2=O)no1 [15AE] |
| – | 150 to 1000 nM | – | Cc1ccc(-n2c(C(F)(F)F)nc3c(sc4nccc(N(C)C)c43)c2=O)cc1 [117A] |
| 150 to 1000 nM | – | – | Cc1ccc(-n2cnc3c(sc4nc(NS(C)(=O)=O)cc(N(C)C)c43)c2=O)cc1 [28FL] |
| – | 50 to 150 nM | – | Cc1cc(N(C)C)c2c(n1)sc1c(=O)n(-c3cccc(Br)c3)cnc12 [7DN] |
| > 1000 nM | – | – | COc1ccnc2sc3c(=O)n(-c4ccc(C5CC5)cc4)cnc3c12 [137H] |
